Source: the supplement of paper PMC10733146

Legend:
Experiment in all cases: viability relative to DMSO control (fraction); higher = less drug effect (more viable cells)
[1] = tested on: primary T-NHL patient cells (S058); conditions: 48 h
Summary of the method: (§1)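 Primary mononuclear tumour cells (Ficoll-isolated from blood or bone marrow, or processed lymph node; fresh or cryopreserved) were plated at 4 × 10^4 cells per well in 384-well plates with pre-plated compounds at five concentrations, one well each. Medium was RPMI-1640 with penicillin/streptomycin, L-glutamine and human serum, at 37 °C and 5% CO2 for 48 h. Viability was read as CellTiter-Glo luminescence relative to the median of 16 inner DMSO wells.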

[2] = tested on: primary MCL patient cells (S068); conditions: 48 h
Summary of the method: as §1

[3] = tested on: primary AML patient cells (S006); conditions: 48 h
Summary of the method: as §1

[4] = tested on: primary AML patient cells (S007); conditions: 2 µM; 48 h
Summary of the method: as §1

[5] = tested on: primary AML patient cells (S056); conditions: 48 h
Summary of the method: as §1

[6] = tested on: primary AML patient cells (S081); conditions: 48 h
Summary of the method: as §1

[7] = tested on: primary AML patient cells (S085); conditions: 48 h
Summary of the method: as §1

[8] = tested on: primary AML patient cells (S037); conditions: 48 h
Summary of the method: as §1

[9] = tested on: primary AML patient cells (S011); conditions: 48 h
Summary of the method: as §1

[10] = tested on: primary CLL patient cells (S043); conditions: 48 h
Summary of the method: as §1

[11] = tested on: primary BL patient cells (S005); conditions: 48 h
Summary of the method: as §1

[12] = tested on: primary DLBCL patient cells (S076); conditions: 48 h
Summary of the method: as §1

[13] = tested on: primary AML patient cells (S012); conditions: 48 h
Summary of the method: as §1

[14] = tested on: primary DLBCL patient cells (S049); conditions: 48 h
Summary of the method: as §1

[15] = tested on: primary MCL patient cells (S063); conditions: 48 h
Summary of the method: as §1

[16] = tested on: primary CLL patient cells (S031); conditions: 48 h
Summary of the method: as §1

[17] = tested on: primary MCL patient cells (S041); conditions: 48 h
Summary of the method: as §1

[18] = tested on: primary T-PLL patient cells (S008); conditions: 48 h
Summary of the method: as §1

Q: CC(C)c1cc(-c2n[nH]c(=O)n2-c2ccc3c(ccn3C)c2)c(O)cc1O [Ganetespib] was tested. Which viability ([1]; 0.0032 µM) did it give?
A: The viability was 1.01.

Q: And the viability ([1]; 0.016 µM)?
A: The viability was 0.978.

Q: And the viability ([1]; 0.08 µM)?
A: Its viability is 0.943.

Q: And the viability ([1]; 0.4 µM)?
A: Its viability is 1.14.

Q: What about the viability ([1]; 2 µM) of the same molecule?
A: Its viability is 1.12.

Q: What about the viability ([2]; 0.0032 µM) of the same molecule?
A: The viability was 1.02.

Q: And the viability ([2]; 0.016 µM)?
A: Its viability is 1.13.

Q: What about the viability ([2]; 0.08 µM) of the same molecule?
A: The viability was 0.532.

Q: And the viability ([2]; 0.4 µM)?
A: Its viability is 0.535.

Q: And the viability ([2]; 2 µM)?
A: Its viability is 0.545.

Q: And the viability ([3]; 0.0032 µM)?
A: Its viability is 0.846.

Q: And the viability ([3]; 0.016 µM)?
A: Its viability is 0.154.

Q: What about the viability ([3]; 0.08 µM) of the same molecule?
A: The viability was 0.134.

Q: What about the viability ([3]; 0.4 µM) of the same molecule?
A: The viability was 0.198.

Q: And the viability ([3]; 2 µM)?
A: The viability was 0.186.

Q: And the viability [4]?
A: Its viability is 0.0928.

Q: What about the viability ([5]; 0.0032 µM) of the same molecule?
A: The viability was 0.705.

Q: And the viability ([5]; 0.016 µM)?
A: The viability was 0.203.

Q: And the viability ([5]; 0.08 µM)?
A: The viability was 0.137.

Q: And the viability ([5]; 0.4 µM)?
A: Its viability is 0.176.

Q: What about the viability ([5]; 2 µM) of the same molecule?
A: Its viability is 0.169.

Q: What about the viability ([6]; 0.0032 µM) of the same molecule?
A: The viability was 0.981.

Q: What about the viability ([6]; 0.016 µM) of the same molecule?
A: Its viability is 0.674.

Q: And the viability ([6]; 0.08 µM)?
A: Its viability is 0.0862.

Q: What about the viability ([6]; 0.4 µM) of the same molecule?
A: Its viability is 0.0773.

Q: And the viability ([6]; 2 µM)?
A: Its viability is 0.0742.

Q: What about the viability ([7]; 0.0032 µM) of the same molecule?
A: Its viability is 0.973.

Q: And the viability ([7]; 0.016 µM)?
A: Its viability is 0.648.

Q: And the viability ([7]; 0.08 µM)?
A: The viability was 0.195.

Q: What about the viability ([7]; 0.4 µM) of the same molecule?
A: The viability was 0.251.

Q: And the viability ([7]; 2 µM)?
A: Its viability is 0.264.

Q: What about the viability ([8]; 0.0032 µM) of the same molecule?
A: Its viability is 0.976.

Q: What about the viability ([8]; 0.016 µM) of the same molecule?
A: Its viability is 0.988.

Q: What about the viability ([8]; 0.08 µM) of the same molecule?
A: The viability was 0.947.

Q: What about the viability ([8]; 0.4 µM) of the same molecule?
A: The viability was 0.979.

Q: And the viability ([8]; 2 µM)?
A: Its viability is 0.937.

Q: And the viability ([9]; 0.0032 µM)?
A: The viability was 1.13.

Q: And the viability ([9]; 0.016 µM)?
A: Its viability is 0.778.

Q: What about the viability ([9]; 0.08 µM) of the same molecule?
A: Its viability is 0.624.

Q: What about the viability ([9]; 0.4 µM) of the same molecule?
A: The viability was 0.684.

Q: And the viability ([9]; 2 µM)?
A: The viability was 0.644.

Q: And the viability ([10]; 0.0032 µM)?
A: Its viability is 0.928.

Q: And the viability ([10]; 0.016 µM)?
A: The viability was 0.917.

Q: And the viability ([10]; 0.08 µM)?
A: The viability was 0.637.

Q: And the viability ([10]; 0.4 µM)?
A: Its viability is 0.535.

Q: What about the viability ([10]; 2 µM) of the same molecule?
A: The viability was 0.521.

Q: And the viability ([11]; 0.0032 µM)?
A: Its viability is 0.871.

Q: And the viability ([11]; 0.016 µM)?
A: The viability was 0.871.

Q: And the viability ([11]; 0.08 µM)?
A: Its viability is 0.637.

Q: And the viability ([11]; 0.4 µM)?
A: The viability was 0.725.

Q: What about the viability ([11]; 2 µM) of the same molecule?
A: The viability was 0.716.

Q: And the viability ([12]; 0.0032 µM)?
A: Its viability is 1.12.

Q: And the viability ([12]; 0.016 µM)?
A: Its viability is 0.904.

Q: And the viability ([12]; 0.08 µM)?
A: The viability was 0.467.

Q: And the viability ([12]; 0.4 µM)?
A: Its viability is 0.407.

Q: And the viability ([12]; 2 µM)?
A: Its viability is 0.396.

Q: What about the viability ([13]; 0.0032 µM) of the same molecule?
A: Its viability is 0.991.

Q: What about the viability ([13]; 0.016 µM) of the same molecule?
A: The viability was 0.964.

Q: What about the viability ([13]; 0.08 µM) of the same molecule?
A: Its viability is 0.131.

Q: What about the viability ([13]; 0.4 µM) of the same molecule?
A: Its viability is 0.126.

Q: What about the viability ([13]; 2 µM) of the same molecule?
A: Its viability is 0.121.

Q: And the viability ([14]; 0.0032 µM)?
A: The viability was 0.955.

Q: What about the viability ([14]; 0.016 µM) of the same molecule?
A: The viability was 0.989.

Q: What about the viability ([14]; 0.08 µM) of the same molecule?
A: The viability was 0.888.

Q: What about the viability ([14]; 0.4 µM) of the same molecule?
A: Its viability is 0.54.

Q: What about the viability ([14]; 2 µM) of the same molecule?
A: The viability was 0.537.

Q: And the viability ([15]; 0.0032 µM)?
A: Its viability is 1.

Q: And the viability ([15]; 0.016 µM)?
A: The viability was 1.05.

Q: What about the viability ([15]; 0.08 µM) of the same molecule?
A: The viability was 0.136.

Q: What about the viability ([15]; 0.4 µM) of the same molecule?
A: The viability was 0.0898.

Q: What about the viability ([15]; 2 µM) of the same molecule?
A: Its viability is 0.0823.

Q: What about the viability ([16]; 0.0032 µM) of the same molecule?
A: The viability was 0.998.

Q: What about the viability ([16]; 0.016 µM) of the same molecule?
A: Its viability is 0.873.

Q: And the viability ([16]; 0.08 µM)?
A: The viability was 0.324.

Q: And the viability ([16]; 0.4 µM)?
A: Its viability is 0.267.

Q: And the viability ([16]; 2 µM)?
A: Its viability is 0.256.

Q: What about the viability ([17]; 0.0032 µM) of the same molecule?
A: The viability was 0.98.

Q: And the viability ([17]; 0.016 µM)?
A: The viability was 0.846.

Q: What about the viability ([17]; 0.08 µM) of the same molecule?
A: Its viability is 0.533.

Q: And the viability ([17]; 0.4 µM)?
A: Its viability is 0.406.

Q: And the viability ([17]; 2 µM)?
A: Its viability is 0.404.

Q: What about the viability ([18]; 0.0032 µM) of the same molecule?
A: Its viability is 0.937.

Q: And the viability ([18]; 0.016 µM)?
A: Its viability is 1.

Q: And the viability ([18]; 0.08 µM)?
A: Its viability is 0.939.

Q: And the viability ([18]; 0.4 µM)?
A: Its viability is 0.988.

Q: And the viability ([18]; 2 µM)?
A: The viability was 0.961.
